Values after ≈ are worked out from the molar mass of the structure shown. Read-outs that look alike come from different tables or passages of the source.

Data set [1] relates to bloodstream-form trypanosome T. brucei brucei 427 strain. In words: Trypanosoma brucei brucei high-throughput in vitro drug sensitivity assay (resazurin). It counts as cell-based. Particulars: for IC50: Trypanosoma brucei, 72 hrs incubation; for Selectivity Index (L929 IC50 / T. b. brucei IC50): T. b. brucei vs L929. On the technique in general: Resazurin is reduced to fluorescent resorufin, in cell work by metabolically active cells.

Data set [2] is described as follows: L929 cytotoxicity evaluation (resazurin). Particulars: mouse, L929 mouse fibroblast cells; 72 hrs incubation; read-out: Cytotox L-929 IC50. It counts as cell-based. In short, it runs like this: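 Mouse L929 fibroblasts (1×10^4/mL seeding, attached overnight) were treated 72 h at 37 °C, 5% CO2 with serially diluted compounds in DMSO in D-MEM/10% FBS. Viability read by resazurin fluorescence after 3–4 h (ex 544/em 590 nm); IC50 from sigmoidal fits of single data points.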

As to `Cc1cc(F)ccc1C(=O)Nc1ccc2c(c1)B(O)OC2(C)C` [compound 87, 4-Fluoro-N-(1-hydroxy-3,3-dimethyl-1,3-dihydro-benzo[c][1,2]oxaborol-6-yl)-2-methyl-benzamide], in data set [1] (read-out: T.b. brucei IC50), the IC50 (usually the point on the concentration scale where inhibition reaches its midpoint) worked out at 3.88 µg/mL. Further, the IC50 at 72 h in data set [2] is more than 10 µg/mL.

With `CC(C)CC1OB(O)c2cc(NC(=O)c3ccccc3C(F)(F)F)ccc21` (centres unmarked) [compound 22, N-(1-Hydroxy-3-isobutyl-1,3-dihydro-benzo[c][1,2]oxaborol-6-yl)-2-trifluoromethyl-benzamide], the “Selectivity Index (L929 IC50 / T. b. brucei IC50)” value in data set [1] is reported as more than 12. Moreover, the concentration for half-maximal inhibition (IC50) was 2300 nM in data set [1] (read-out: T. b. brucei IC50) and 0.866 µg/mL in data set [1] (read-out: T.b. brucei IC50). Further, the IC50 at 72 h in data set [2] is more than 10 µg/mL.

Consider `CC1OB(O)c2cc(NC(=O)c3ccccc3I)ccc21` (centres unmarked) [compound 15, N-(1-Hydroxy-3-methyl-1,3-dihydro-benzo[c][1,2]oxaborol-6-yl)-2-iodo-benzamide], for which the “Selectivity Index (L929 IC50 / T. b. brucei IC50)” value in data set [1] is given as 36. For the same compound, the IC50 amounted to 173 nM in data set [1] (read-out: T. b. brucei IC50) and 0.068 µg/mL in data set [1] (read-out: T.b. brucei IC50). Besides, the half-maximal inhibitory concentration (IC50) at 72 h in data set [2] amounted to 2.45 µg/mL (≈ 6.23 µM).

Take `CCCCCOc1ccc(C(=O)Nc2ccc3c(c2)B(O)OC3(C)C)cc1` [compound 50, N-(1-Hydroxy-3,3-dimethyl-1,3-dihydro-benzo[c][1,2]oxaborol-6-yl)-4-pentyloxy-benzamide]: in data set [1] (read-out: T.b. brucei IC50), the IC50 worked out at 1.4 µg/mL. Also, the IC50 at 72 h in data set [2] is more than 10 µg/mL.

In the case of `CC1(C)OB(O)c2cc(NC(=O)c3c(Cl)cccc3Cl)ccc21` [compound 68, 2,6-Dichloro-N-(1-hydroxy-3,3-dimethyl-1,3-dihydro-benzo[c][1,2]oxaborol-6-yl)-benzamide], the half-maximal inhibitory concentration (IC50) in data set [1] (read-out: T.b. brucei IC50) was found to be 2.23 µg/mL. In data set [2], the IC50 at 72 h is more than 10 µg/mL.

Regarding `COc1cccc(OC)c1C(=O)Nc1ccc2c(c1)B(O)OC2(C)C` [compound 96, N-(1-Hydroxy-3,3-dimethyl-1,3-dihydro-benzo[c][1,2]oxaborol-6-yl)-2,6-dimethoxy-benzamide], the half-inhibitory concentration (IC50) in data set [1] (read-out: T.b. brucei IC50) amounted to 2.72 µg/mL. The IC50 at 72 h in data set [2] is more than 10 µg/mL.

Take `CC1(C)OB(O)c2cc(NC(=O)c3ccc(C#N)cc3)ccc21` [compound 57, 4-Cyano-N-(1-hydroxy-3,3-dimethyl-1,3-dihydro-benzo[c][1,2]oxaborol-6-yl)-benzamide]: the half-maximal inhibitory concentration (IC50) in data set [1] (read-out: T.b. brucei IC50) is more than 5 µg/mL. Further, the half-maximal inhibitory concentration (IC50) at 72 h in data set [2] was more than 10 µg/mL.

Regarding `COc1cccc(C(=O)Nc2ccc3c(c2)B(O)OC3C)c1` (centres unmarked) [compound 6, N-(1-Hydroxy-3-methyl-1,3-dihydro-benzo[c][1,2]oxaborol-6-yl)-3-methoxy-benzamide], the “Selectivity Index (L929 IC50 / T. b. brucei IC50)” value in data set [1] is more than 217. Also, the IC50 in data set [1] (read-out: T. b. brucei IC50) came out at 155 nM; in data set [1] (read-out: T.b. brucei IC50), 0.046 µg/mL. Besides, the 50% inhibitory concentration (IC50) at 72 h in data set [2] was more than 10 µg/mL.

For `CC1(C)OB(O)c2cc(NC(=O)c3cnccn3)ccc21` [compound 119, Pyrazine-2-carboxylic acid (1-hydroxy-3,3-dimethyl-1,3-dihydro-benzo[c][1,2]oxaborol-6-yl)-amide], the IC50 in data set [1] (read-out: T.b. brucei IC50) was more than 5 µg/mL. In addition, in data set [2], the IC50 at 72 h is more than 10 µg/mL.

With `CCc1ccc(C(=O)Nc2ccc3c(c2)B(O)OC3(C)C)cc1` [compound 30, 4-Ethyl-N-(1-hydroxy-3,3-dimethyl-1,3-dihydro-benzo[c][1,2]oxaborol-6-yl)-benzamide], the IC50 in data set [1] (read-out: T.b. brucei IC50) stood at 0.427 µg/mL. Also, the concentration for half-maximal inhibition (IC50) at 72 h in data set [2] is more than 10 µg/mL.

For the compound `CC1(C)OB(O)c2cc(NC(=O)c3ccc(OC(F)(F)F)cc3)ccc21` [compound 53, N-(1-Hydroxy-3,3-dimethyl-1,3-dihydro-benzo[c][1,2]oxaborol-6-yl)-4-trifluoromethoxy-benzamide], the half-inhibitory concentration (IC50) in data set [1] (read-out: T.b. brucei IC50) was determined as 0.407 µg/mL. Also, the concentration for half-maximal inhibition (IC50) at 72 h in data set [2] is more than 10 µg/mL.

Consider `CC1(C)OB(O)c2cc(NC(=O)c3ccccc3OC(F)(F)F)ccc21` [compound 51, N-(1-Hydroxy-3,3-dimethyl-1,3-dihydro-benzo[c][1,2]oxaborol-6-yl)-2-trifluoromethoxy-benzamide], for which, in data set [1] (read-out: T.b. brucei IC50), the 50% inhibitory concentration (IC50) was 1.15 µg/mL. Further, the 50% inhibitory concentration (IC50) at 72 h in data set [2] was more than 10 µg/mL.

Consider `CC1(C)OB(O)c2cc(NC(=O)C3CCCCC3)ccc21` [compound 129, Cyclohexanecarboxylic acid (1-hydroxy-3,3-dimethyl-1,3-dihydro-benzo[c][1,2]oxaborol-6-yl)-amide], for which the half-maximal inhibitory concentration (IC50) in data set [1] (read-out: T.b. brucei IC50) was more than 5 µg/mL. The concentration for half-maximal inhibition (IC50) at 72 h in data set [2] was more than 10 µg/mL.

Turning to `Cc1cc(Br)ccc1C(=O)Nc1ccc2c(c1)B(O)OC2(C)C` [compound 91], the 50% inhibitory concentration (IC50) in data set [1] (read-out: T.b. brucei IC50) is 0.786 µg/mL. The IC50 at 72 h in data set [2] is more than 10 µg/mL.

For the compound `CC1(C)OB(O)c2cc(NC(=O)c3ccc([N+](=O)[O-])cc3)ccc21` [compound 56, N-(1-Hydroxy-3,3-dimethyl-1,3-dihydro-benzo[c][1,2]oxaborol-6-yl)-4-nitro-benzamide], the IC50 in data set [1] (read-out: T.b. brucei IC50) is more than 5 µg/mL. Further, in data set [2], the half-inhibitory concentration (IC50) at 72 h is more than 10 µg/mL.

As to `CC1(C)OB(O)c2cc(NC(=O)c3ccccc3F)ccc21` [compound 37, 2-Fluoro-N-(1-hydroxy-3,3-dimethyl-1,3-dihydro-benzo[c][1,2]oxaborol-6-yl)-benzamide], the IC50 in data set [1] (read-out: T.b. brucei IC50) worked out at 1.42 µg/mL. Further, the IC50 at 72 h in data set [2] is more than 10 µg/mL.

In the case of `CCCCc1ccc(C(=O)Nc2ccc3c(c2)B(O)OC3(C)C)cc1` [compound 32, 4-Butyl-N-(1-hydroxy-3,3-dimethyl-1,3-dihydro-benzo[c][1,2]oxaborol-6-yl)-benzamide], the IC50 in data set [1] (read-out: T.b. brucei IC50) came to 0.349 µg/mL. In data set [2], the IC50 at 72 h was more than 10 µg/mL.

In the case of `CC1(C)OB(O)c2cc(NC(=O)C3CC3)ccc21` [compound 126, Cyclopropanecarboxylic acid (1-hydroxy-3,3-dimethyl-1,3-dihydro-benzo[c][1,2]oxaborol-6-yl)-amide], the IC50 in data set [1] (read-out: T.b. brucei IC50) is more than 5 µg/mL. Also, in data set [2], the IC50 at 72 h was more than 10 µg/mL.

For the compound `CCOc1ccccc1C(=O)Nc1ccc2c(c1)B(O)OC2(C)C` [compound 49, 2-Ethoxy-N-(1-hydroxy-3,3-dimethyl-1,3-dihydro-benzo[c][1,2]oxaborol-6-yl)-benzamide], in data set [1] (read-out: T.b. brucei IC50), the IC50 is more than 5 µg/mL. In data set [2], the half-inhibitory concentration (IC50) at 72 h is more than 10 µg/mL.

`CC1(C)OB(O)c2cc(NC(=O)c3cc(Cl)ccc3F)ccc21` [compound 72, 5-Chloro-2-fluoro-N-(1-hydroxy-3,3-dimethyl-1,3-dihydro-benzo[c][1,2]oxaborol-6-yl)-benzamide]: the IC50 in data set [1] (read-out: T.b. brucei IC50) was 0.407 µg/mL. Besides, the IC50 at 72 h in data set [2] is more than 10 µg/mL.

Regarding `CC1(C)OB(O)c2cc(NC(=O)c3ccc(N4CCOCC4)cc3)ccc21` [compound 61, N-(1-Hydroxy-3,3-dimethyl-1,3-dihydro-benzo[c][1,2]oxaborol-6-yl)-4-morpholin-4-yl-benzamide], the half-inhibitory concentration (IC50) in data set [1] (read-out: T.b. brucei IC50) worked out at 1.6 µg/mL. In data set [2], the IC50 at 72 h was more than 10 µg/mL.

Take `Cc1cccc(C(=O)Nc2ccc3c(c2)B(O)OC3(C)C)c1` [compound 28, N-(1-Hydroxy-3,3-dimethyl-1,3-dihydro-benzo[c][1,2]oxaborol-6-yl)-3-methyl-benzamide]: the IC50 in data set [1] (read-out: T.b. brucei IC50) worked out at 3.17 µg/mL. In data set [2], the half-maximal inhibitory concentration (IC50) at 72 h was more than 10 µg/mL.

On to `CC(=O)Nc1ccc(C(=O)Nc2ccc3c(c2)B(O)OC3(C)C)cc1` [compound 59, 4-Acetylamino-N-(1-hydroxy-3,3-dimethyl-1,3-dihydro-benzo[c][1,2]oxaborol-6-yl)-benzamide], for which the IC50 in data set [1] (read-out: T.b. brucei IC50) was 1.61 µg/mL. In data set [2], the IC50 at 72 h is more than 10 µg/mL.

As to `CC1(C)OB(O)c2cc(NC(=O)c3cccc(C(F)(F)F)c3F)ccc21` [compound 83, 2-Fluoro-N-(1-hydroxy-3,3-dimethyl-1,3-dihydro-benzo[c][1,2]oxaborol-6-yl)-3-trifluoromethyl-benzamide], the half-inhibitory concentration (IC50) in data set [1] (read-out: T.b. brucei IC50) is 0.543 µg/mL. Besides, in data set [2], the IC50 at 72 h is more than 10 µg/mL.

`CC1(C)OB(O)c2cc(NC(=O)c3cccc(Cl)c3)ccc21` [compound 42, 3-Chloro-N-(1-hydroxy-3,3-dimethyl-1,3-dihydro-benzo[c][1,2]oxaborol-6-yl)-benzamide]: the IC50 in data set [1] (read-out: T.b. brucei IC50) was determined as 2.12 µg/mL. The IC50 at 72 h in data set [2] was more than 10 µg/mL.

With `CC1(C)OB(O)c2cc(NC(=O)C3CCCC3)ccc21` [compound 128, Cyclopentanecarboxylic acid (1-hydroxy-3,3-dimethyl-1,3-dihydro-benzo[c][1,2]oxaborol-6-yl)-amide], in data set [1] (read-out: T.b. brucei IC50), the half-inhibitory concentration (IC50) is more than 5 µg/mL. Further, the IC50 at 72 h in data set [2] is more than 10 µg/mL.

On to `CC1(C)OB(O)c2cc(NC(=O)c3cccnc3)ccc21` [compound 115, N-(1-Hydroxy-3,3-dimethyl-1,3-dihydro-benzo[c][1,2]oxaborol-6-yl)-nicotinamide], for which, in data set [1] (read-out: T.b. brucei IC50), the 50% inhibitory concentration (IC50) was more than 5 µg/mL. In data set [2], the IC50 at 72 h was more than 10 µg/mL.

For `O=C(Nc1ccc2c(c1)B(O)OC2C1CCCC1)c1ccc(F)cc1` (centres unmarked) [compound 20, N-(3-Cyclopentyl-1-hydroxy-1,3-dihydro-benzo[c][1,2]oxaborol-6-yl)-4-fluoro-benzamide], the figures for the half-inhibitory concentration (IC50) in data set [1] (read-out: T. b. brucei IC50) and in data set [1] (read-out: T.b. brucei IC50) were more than 14500 nM and more than 5 µg/mL, respectively. For the same compound, the 50% inhibitory concentration (IC50) at 72 h in data set [2] is more than 10 µg/mL.

With `CC1(C)OB(O)c2cc(NC(=O)c3cccs3)ccc21` [compound 124, Thiophene-2-carboxylic acid (1-hydroxy-3,3-dimethyl-1,3-dihydro-benzo[c][1,2]oxaborol-6-yl)-amide], in data set [1] (read-out: T.b. brucei IC50), the IC50 was found to be 2.7 µg/mL. The IC50 at 72 h in data set [2] is more than 10 µg/mL.

On to `CC1(C)OB(O)c2cc(NC(=O)c3c(F)cccc3C(F)(F)F)ccc21` [compound 86, 2-Fluoro-N-(1-hydroxy-3,3-dimethyl-1,3-dihydro-benzo[c][1,2]oxaborol-6-yl)-6-trifluoromethyl-benzamide], for which the half-maximal inhibitory concentration (IC50) in data set [1] (read-out: T.b. brucei IC50) is 0.425 µg/mL. For the same compound, the IC50 at 72 h in data set [2] is more than 10 µg/mL.

As for `CC1(C)OB(O)c2cc(NC(=O)c3ccoc3)ccc21` [compound 120, Furan-3-carboxylic acid (1-hydroxy-3,3-dimethyl-1,3-dihydro-benzo[c][1,2]oxaborol-6-yl)-amide], in data set [1] (read-out: T.b. brucei IC50), the 50% inhibitory concentration (IC50) is more than 5 µg/mL. In addition, the IC50 at 72 h in data set [2] is more than 10 µg/mL.

With `CCCc1ccc(C(=O)Nc2ccc3c(c2)B(O)OC3(C)C)cc1` [compound 31, N-(1-Hydroxy-3,3-dimethyl-1,3-dihydro-benzo[c][1,2]oxaborol-6-yl)-4-propyl-benzamide], the half-inhibitory concentration (IC50) in data set [1] (read-out: T.b. brucei IC50) worked out at 0.397 µg/mL. The IC50 at 72 h in data set [2] is more than 10 µg/mL.

For the origin of these results see patent US20110190235A1, “BORON-CONTAINING SMALL MOLECULES AS ANTIPROTOZOAL AGENTS” (Anacor Pharmaceuticals, Inc., priority 2009, published 2011).
